Source: publication PMC1764434 (PLoS Clinical Trials, 2007)
Entries after “also recorded” stand apart in the source; their conditions may differ. Like-named read-outs stand apart in the source and are kept apart here.

Key:
[1] = Blood pharmacokinetics after oral dosing (fluorescence HPLC, noncompartmental WinNonlin model); assay type: in vivo, human; details: for Cmax / Vd/F / MRT / Tmax / half-life / AUC: human, whole blood; for Cmax: read-out: Cmax; for MRT: read-out: MRT (converted); for AUC: po
Experimental: Study drugs were administered in the GCRC on an empty stomach between 8 and 9 AM the morning after admission (after fasting for ≥ 10 h).

[2] = system: CQ-resistant P. falciparum; details: CQ-resistant P. falciparum in the squirrel monkey; cited from earlier work
animals = details: preclinical studies; cited from earlier work
healthy volunteers [3] = experiment: Clinical adverse events (weekly diaries, blinded relatedness assessment), Phase I RCT; assay type: in vivo, human
Experimental: Adverse events (AEs) were recorded in weekly diaries provided to each volunteer. The relatedness of these AEs to the study drugs was assessed by two physicians (FM, CH) based on temporal association and biological plausibility using five categories: definitely not, unlikely, possibly, probably, and definitely related. The AEs reported in this manuscript include all AEs assessed as possibly, probably, or definitely related.
Quantitative data are presented as the mean ± standard deviation or as median and range, as appropriate. […] Due to a lack of normality, the nonparametric Mann-Whitney U test was used to compare independent samples; the Wilcoxon or Friedman test (whichever was appropriate) was used to compare repeated measures of the QTc interval. All statistical tests were two-sided with an α (significance level) of 0.05. Analyses were performed using the SPSS 11.0 statistical software (SPSS, Chicago, Illinois, United States). All analyses were based on allocation by intent-to-treat.

QT interval = experiment: Effects on the QT interval (ECG and Holter recordings, Bazett correction); details: for QTc interval, Baseline: before dosing
Experimental: The effects of the study drugs on the QT interval were assessed by comparing QT intervals before dosing with QT intervals 4 h after dosing, and at the 2 wk follow-up. […] QT intervals were measured manually and electronically (Rozinn Electronics, Glendale, New York, United States). […] Correction of the QT interval for heart rate (i.e., QTc) was performed using Bazett's formula [27].

[4] = Urinary excretion and renal clearance (24-hour urine collections, days 1-3)
[5] = cited from earlier work
[6] = system: CQ-resistant P. falciparum; details: cited from earlier work
healthy volunteers [7] = experiment: Post-dose clinical and laboratory follow-up (hematology, chemistry, organ toxicity); assay type: in vivo, human
P. cynomolgi = details: cited from earlier work
[8] = 1750 mg, 1,750 mg oral over 3 d, median (range)
[9] = single oral 600 mg dose, median (range)
[10] = single oral 700 mg adjustment dose, median (range)
[11] = 1,500 mg CQ (n = 15) / 1,750 mg AQ-13 (n = 14)
[12] = 100, 300 mg doses, n = 16 per drug
[13] = 600/700 mg, AQ-13 n = 25, CQ n = 24
[14] = all doses combined, 63 volunteers per drug
[15] = 1,750 mg AQ-13, 1,500 mg CQ, mean ± SD
[16] = 600/700 mg AQ-13, 600 mg CQ, mean ± SD
[17] = days 1-3, 1,750 mg AQ-13 / 1,500 mg CQ
[18] = 2 wk follow-up, individual participant

CCN(CC)CCCNc1ccnc2cc(Cl)ccc12 [AQ-13]
blood level one hour after dosing as % of Cmax ([1]; 600 mg oral dose): 52% | Cl/F ([1]; 1,750 mg oral over 3 d, median (range)): 14.0 (6.8–20.3) l/h | median oral clearance (range of medians across dose levels) ([1]; 600 and 1,500/1,750 mg doses): 14.0 to 14.7 L/h | Cmax ([1]; 1750 mg, 1,750 mg oral over 3 d (700+700+350 mg), median (range)): 3000 nM | Vd/F [1, 8]: 6660 L | MRT [1, 8]: 13.4 days | Tmax ([1]; 1750 mg, 1,750 mg oral over 3 d, median (range), read-out: Tmax): 1.14 days | half-life ([1]; 1750 mg, 1,750 mg oral over 3 d, median (range), read-out: t½ (converted)): 12.9 days | Tmax ([1]; oral, 1,750 mg AQ-13 / 1,500 mg CQ, 27–28 h after the first dose, read-out: time of peak blood concentration after the second dose): 0.125 to 0.167 days | AUC ([1]; 600 mg, single oral 600 mg dose, median (range), read-out: AUCw1 (partial AUC for week 1)): 71.8 µM·h | AUC ([1]; 600 mg, single oral 600 mg dose, median (range), read-out: AUCτ (total area under the curve)): 141 µM·h | AUC ([1]; 700 mg, single oral 700 mg adjustment dose, median (range), read-out: AUCw1): 96.3 µM·h | AUC ([1]; 700 mg, single oral 700 mg adjustment dose, median (range), read-out: AUCτ): 342 µM·h | AUC ([1]; 1750 mg, 1,750 mg oral over 3 d, median (range), read-out: AUCw1): 226 µM·h | AUC ([1]; 1750 mg, 1,750 mg oral over 3 d, median (range), read-out: AUCτ): 493 µM·h | Vd/F [1, 9]: 6710 L | Vd/F [1, 10]: 6830 L | MRT [1, 10]: 23.5 days | Tmax ([1]; single oral 700 mg adjustment dose, median (range), read-out: Tmax): 0.167 days | half-life ([1]; single oral 700 mg adjustment dose, median (range), read-out: t½ (converted)): 17.9 days | Cmax ([1]; single oral 600 mg dose (CQ base equivalent), median (range)): 1400 nM | MRT [1, 9]: 10.5 days | Tmax ([1]; single oral 600 mg dose, median (range), read-out: Tmax): 0.167 days | half-life ([1]; single oral 600 mg dose, median (range), read-out: t½ (terminal elimination half-life) (converted)): 14.3 days | Cmax [1, 10]: 1600 nM | linearity of pharmacokinetics ([1]; oral doses in healthy volunteers): linear pharmacokinetics | Cl/F (apparent oral clearance) [1, 9]: 14.7 (7.0–31.1) l/h | Cl/F [1, 10]: 11.8 (8.5–19.1) l/h | activity in vivo in monkey model [2]: active in vivo | toxicity in animals in comparison with CQ (animals): no differences in toxicity | related adverse events: None (healthy volunteers [3]; 10 mg dose, n = 8 per drug): 0 | Abdominal pain, number (%) (healthy volunteers [3]; [11]): 1 (7%) | Blurred vision, number (%) (healthy volunteers [3]; [11]): 2 (14%) | Diarrhea, number (%) (healthy volunteers [3]; [11]): 4 (29%) | Difficulty focusing/visual floating objects, number (%) (healthy volunteers [3]; [11]): 2 (14%) | Lightheadedness/Dizziness, number (%) (healthy volunteers [3]; [11]): 7 (50%) | Nausea, number (%) (healthy volunteers [3]; [11]): 5 (36%) | Vomiting, number (%) (healthy volunteers [3]; [11]): 2 (14%) | Weakness/fatigue, number (%) (healthy volunteers [3]; [11]): 2 (14%) | Headache, number (%) (healthy volunteers [3]; 1,500 mg CQ (n = 15) / 1,750 mg AQ-13 (n = 14) over 3 d): 5 (36%) | Headache, volunteers with related AE, number (%) (healthy volunteers [3]; [12]): 2 (12%) | Lightheadedness/Dizziness, number (%) (healthy volunteers [3]; [12]): 0 | Nausea, number (%) (healthy volunteers [3]; [12]): 1 (6%) | Abdominal pain, number (%) (healthy volunteers [3]; [13]): 2 (8%) | Diarrhea, number (%) (healthy volunteers [3]; [13]): 2 (8%) | Ear symptoms, number (%) (healthy volunteers [3]; [13]): 0 | Headache, number (%) (healthy volunteers [3]; [13]): 10 (40%) | Lightheadedness/Dizziness, number (%) (healthy volunteers [3]; [13]): 4 (16%) | Loss of appetite, number (%) (healthy volunteers [3]; [13]): 3 (12%) | Nausea, number (%) (healthy volunteers [3]; [13]): 2 (8%) | Vomiting, number (%) (healthy volunteers [3]; [13]): 2 (8%) | drug-related GI symptoms, number of reports (healthy volunteers [3]; all doses combined): 28 reports | drug-related lightheadedness/dizziness, volunteers/total (healthy volunteers [3]; [14]): 11/63 | volunteers reporting one or more GI symptoms/total (healthy volunteers [3]; [14]): 14/63 | mean QTc prolongation after the first dose (day 1) (QT interval; 1,500 mg CQ (first 600 mg dose) / 1,750 mg AQ-13 (first 700 mg dose)): 4 ms | additional QTc increase after the second dose (day 2) (QT interval; 1,500 mg CQ / 1,750 mg AQ-13): 6 ms | QTc interval, Baseline (QT interval; 1,750 mg AQ-13 (n = 13), 1,500 mg CQ (n = 14), mean ± SD): 397 ± 16 ms | QTc interval, 2 wk follow-up (QT interval; [15]): 402 ± 13 ms | QTc interval, 4–5 h post-dose (day 1) (QT interval; [15]): 401 ± 14 ms | QTc interval, 4–5 h post-dose (day 2) (QT interval; [15]): 407 ± 11 ms | QTc interval, 4–5 h post-dose (day 3) (QT interval; [15]): 400 ± 11 ms | mean QTc prolongation, females (QT interval; 1,750 mg AQ-13 / 1,500 mg CQ): 12 ms | mean increase in the QTc interval from baseline (QT interval; 1,750 mg AQ-13 / 1,500 mg CQ, 4 h after the second dose on day 2): 10 ms | QTc interval, Baseline (QT interval; 600/700 mg AQ-13 (n = 25), 600 mg CQ (n = 24), mean ± SD): 403 ± 17 ms | QTc interval, 2 wk follow-up (QT interval; [16]): 405 ± 18 ms | QTc interval, 4–5 h post-dose (day 1) (QT interval; [16]): 414 ± 17 ms | maximal prolongation of the QTc interval from baseline at the individual level (QT interval; 600/700 mg dose): 42 ms | maximal prolongation of the QTc interval from baseline at the individual level (QT interval; 1,500/1,750 mg dose): 35 ms | mean increase in the QTc interval from baseline, females (QT interval; 4 h after 600 mg CQ or 600/700 mg AQ-13): 18 ms | mean QTc interval change from baseline, males (QT interval; 4 h after 600 mg CQ or 600/700 mg AQ-13, not significant): 1 ms | mean increase in the QTc interval from baseline (QT interval; 4 h after 600 mg CQ or 600 or 700 mg AQ-13): 11 ms | arrhythmias or other cardiac AEs (QT interval; all doses): no arrhythmias or other cardiac AEs; also recorded: no cardiac AEs | amount of unchanged drug recovered from 24 hour urine collections [4, 17]: 443 µmol | unchanged drug recovered from 24 hour urine collections, % of total oral dose [4, 17]: 8.4% | CL renal ([4]; human, urine and whole blood, po, 1750 mg): 55 mL/min | clearance in preclinical studies in comparison with CQ [5]: cleared more rapidly than CQ | oral bioavailability in comparison with CQ ([5]; rats and monkeys, GLP preclinical studies by SRI International): less than that of CQ | activity against resistant malaria parasites in vitro [6]: active against resistant malaria parasites | ALT in one participant with abnormal liver function tests (healthy volunteers [7]; [18]): 149 | AST in one participant with abnormal liver function tests (healthy volunteers [7]; [18]): 135 U/l | alkaline phosphatase in one participant with abnormal liver function tests (healthy volunteers [7]; [18]): 146 | bilirubin in one participant with abnormal liver function test (healthy volunteers [7]; [18]): 1.5 mg/dL | volunteers with mildly abnormal liver function tests (healthy volunteers [7]; 2 wk follow-up, AQ-13 100 and 300 mg doses, CQ 1,500 mg dose): two | hematologic or chemical toxicities on repeat laboratory testing (healthy volunteers [7]; 4 d after drug administration): no hematologic or chemical toxicities | organ toxicity (healthy volunteers [7]; any dose tested, inpatient exams, 2 and 4 wk follow-up): No hematologic, hepatic, renal, or other organ toxicity was observed; also recorded: no clinical evidence for end-organ toxicity | activity in vivo in monkey model (P. cynomolgi; P. cynomolgi in the rhesus monkey): active in vivo | activity in monkey models of human malaria compared with AQ-21 (P. cynomolgi; both monkey models, ref Cogswell, et al., unpublished data): more active
